Experimental data published in patent US8389680B2, “Treatment of Aspergillus infections with alpha thymosin peptides” (SciClone Pharmaceuticals, Inc., priority 2003, dated 2013).
Entries after “also recorded” stand apart in the source; their conditions may differ.

How the values were obtained:
murine DCs = test: IL-12 p70 and IL-10 production by murine DCs in response to microbial TLR ligands; format: cell-based
Procedure: (§1) Zymosan was from Saccharomyces cerevisiae, lipoteichoic acid (LTA) from Staphylococcus aureus, and lipopolysaccharide (LPS) from Salmonella Minnesota Re 595. The CpG oligonucleotides 1826 and 2006 were proven immunostimulatory sequences. For phagocytosis, DCs were pre-exposed to 100 ng/ml TA1 for 60 minutes and subsequently incubated at 37° C. with Aspergillus conidia for an additional 60 minutes. The percentage of internalization was calculated and photographs were taken. In assessing functional maturation and cytokine determination, purified DCs were resuspended in Iscove's medium (with no serum but with polymixin B, to avoid non-specific activation by serum components and endotoxin) and pulsed with 100 ng/ml TA1 for 24 hours either alone or together with TLR ligands or unopsonized Aspergillus conidia. The levels of TNF-alpha, IL-10, IL-12 p70, IFN-alpha and IL-8 in culture supernatants were determined by Kit ELISAs. The detection limits (pg/ml) of the assays were <3 (human) and <32 (murine) for TNF-alpha, <12 (murine) and <5 (human) for IL-10, <16 (murine) and <3 (human) for IL-12 p70 and <25 (human) IL-8. For human IFN-alpha <3 ng/ml. For enumeration of cytokine-producing cells, an ELISPOT assay was used on purified CD4^+ T cells and DCs from lungs.

TLR4/CD14 = target: T1, TLR4/CD14 (Homo sapiens, UniProt O00206); test: IL-8 production by TLR4/CD14-transfected HEK293 cells; format: cell-based
T1 construct: expressed in transfected cells; host or cells: HEK293
Procedure: (§2) The human embryonic kidney cell line HEK293, wild type or stably transfected with human TLR2, TLR9 and TLR4/CD1427 were cultured in low glucose Dulbecco's modified Eagle's medium supplemented with 10% FCS, HEPES ([…]), L-glutamine ([…]), and gentamycin (50 microgram/ml). Transfectants were additionally supplemented with puromycin (100 microgram/ml). For stimulation experiments, cells were cultured at a density of 3 to 5×10^5 cells/wells in 12-well tissue culture plates overnight. Cells were washed and stimulated with 100 ng/ml TA1 either alone or together with TLR ligands for 5 h before the assessment of IL-8 production in the supernatants.
(§3) The levels of TNF-alpha, IL-10, IL-12 p70, IFN-alpha and IL-8 in culture supernatants were determined by Kit ELISAs. The detection limits (pg/ml) of the assays were <3 (human) and <32 (murine) for TNF-alpha, <12 (murine) and <5 (human) for IL-10, <16 (murine) and <3 (human) for IL-12 p70 and <25 (human) IL-8. For human IFN-alpha <3 ng/ml. For enumeration of cytokine-producing cells, an ELISPOT assay was used on purified CD4^+ T cells and DCs from lungs.

A. fumigatus = test: Local fungal growth after Aspergillus infection of TLR2-, TLR9- or MyD88-deficient mice; format: in vivo
Source text: Female, 8- to 10-weeks old, BALB/c and C57BL6 mice were from Charles River. NOD/SCID were from The Jackson. Breeding pairs of homozygous TLR2-, TLR9- and MyD88-deficient mice, raised on C57BL6 background, and of homozygous IFN-gamma- and IL-4-deficient mice, raised on BALB/c background, were bred under specific-pathogen free conditions.
For infection with A. fumigatus, mice were intranasally injected for 3 consecutive days with a suspension of 2×10^7 conidia/20 microliter saline. For the quantification of fungal growth in the lungs, the chitin assay was used. The chitin content was expressed as micrograms of glucosamine per organ. The glucosamine content of lungs from uninfected mice was used as a negative control ranging between 0.80 and 2.25 microgram glucosamine/organ. For histological analysis, lungs were excised and immediately fixed in formalin. Sections (3 to 4 micron) of paraffin-embedded tissues were stained with the periodic acid-Schiff procedure. Thymosin alpha 1 (TA1) and the scrambled polypeptide are as purified sterile lyophilized acetylated polypeptides with endotoxin levels less than 0.03 pg/ml, by a standard limulus lysate assay. The sequences were as follows: Ac-[…]O (Thymosin alpha 1, SEQ ID NO.: 1) and Ac-[…]OH ([…]). Their lyophilized powders were reconstituted in sterile water.
The treatments were as follows; in BMT-mice, TA1, at different doses administered intraperitoneally, sthymosin alpha 1, 400 microgram/kg administered intraperitoneally or human recombinant G-CSF 250 microgram/kg administered intravenously, were given daily beginning the day of the BM infusion, in concomitance with the infection and continuing for an additional 3 days. Amphotericin B was given daily for 3 days in concomitance with the infection, at a dose of 4000 microgram/kg, administered intraperitoneally. This dose would cure IA in cyclophosphamide-treated mice. Cyclophosphamide, 150 mg/kg administered intraperitoneally, was given a day before the infection. […]

MyD88-dependent pathway = test: Cytokine production by DCs of MyD88-deficient mice; format: cell-based
Procedure: as §1, with “Female, 8- to 10-weeks old, BALB/c and C57BL6 mice were” for “Zymosan was”, “Charles River. NOD/SCID were” for “Saccharomyces cerevisiae, lipoteichoic acid (LTA)”, “The Jackson. Breeding pairs of homozygous TLR2-, TLR9-” for “Staphylococcus aureus,”, “MyD88-deficient mice, raised on C57BL6 background,” for “lipopolysaccharide (LPS) from Salmonella Minnesota Re 595. The CpG oligonucleotides 1826”, “of homozygous IFN-gamma- and IL-4-deficient mice, raised on BALB/c background,” for “2006”, “bred under specific-pathogen free conditions.” for “proven immunostimulatory sequences.”

human TLR2 = target: T2, human TLR2 (Homo sapiens, UniProt O60603); test: IL-8 production by TLR2-transfected HEK293 cells; format: cell-based
T2 construct: expressed in transfected cells; host or cells: HEK293
Procedure: as §2, §3

[1] = after stimulation with CpG (TLR9)
[2] = after stimulation with LTA (TLR2)
[3] = after stimulation with zymosan (TLR2)

T2 sequence (O60603 21-784): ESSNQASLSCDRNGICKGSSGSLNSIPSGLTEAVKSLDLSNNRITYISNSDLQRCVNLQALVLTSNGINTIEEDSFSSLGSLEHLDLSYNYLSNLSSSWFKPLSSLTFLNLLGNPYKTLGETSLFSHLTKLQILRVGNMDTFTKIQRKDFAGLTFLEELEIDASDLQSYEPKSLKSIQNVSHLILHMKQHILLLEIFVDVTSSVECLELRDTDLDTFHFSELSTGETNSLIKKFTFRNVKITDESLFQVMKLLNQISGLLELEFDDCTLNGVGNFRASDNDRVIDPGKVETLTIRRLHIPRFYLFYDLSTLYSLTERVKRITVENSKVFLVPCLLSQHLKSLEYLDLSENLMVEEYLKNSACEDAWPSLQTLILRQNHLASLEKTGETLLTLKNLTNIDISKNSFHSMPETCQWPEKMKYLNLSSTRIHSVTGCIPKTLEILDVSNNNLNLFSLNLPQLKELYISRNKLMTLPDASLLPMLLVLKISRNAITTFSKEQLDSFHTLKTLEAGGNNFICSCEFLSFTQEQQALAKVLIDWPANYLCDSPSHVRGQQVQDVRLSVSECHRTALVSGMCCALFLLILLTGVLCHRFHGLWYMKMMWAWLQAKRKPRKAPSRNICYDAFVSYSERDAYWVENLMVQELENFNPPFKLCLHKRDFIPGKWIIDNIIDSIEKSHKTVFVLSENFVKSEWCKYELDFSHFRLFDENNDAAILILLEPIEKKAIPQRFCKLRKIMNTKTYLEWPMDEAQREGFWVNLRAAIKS
T1 sequence (O00206 24-839): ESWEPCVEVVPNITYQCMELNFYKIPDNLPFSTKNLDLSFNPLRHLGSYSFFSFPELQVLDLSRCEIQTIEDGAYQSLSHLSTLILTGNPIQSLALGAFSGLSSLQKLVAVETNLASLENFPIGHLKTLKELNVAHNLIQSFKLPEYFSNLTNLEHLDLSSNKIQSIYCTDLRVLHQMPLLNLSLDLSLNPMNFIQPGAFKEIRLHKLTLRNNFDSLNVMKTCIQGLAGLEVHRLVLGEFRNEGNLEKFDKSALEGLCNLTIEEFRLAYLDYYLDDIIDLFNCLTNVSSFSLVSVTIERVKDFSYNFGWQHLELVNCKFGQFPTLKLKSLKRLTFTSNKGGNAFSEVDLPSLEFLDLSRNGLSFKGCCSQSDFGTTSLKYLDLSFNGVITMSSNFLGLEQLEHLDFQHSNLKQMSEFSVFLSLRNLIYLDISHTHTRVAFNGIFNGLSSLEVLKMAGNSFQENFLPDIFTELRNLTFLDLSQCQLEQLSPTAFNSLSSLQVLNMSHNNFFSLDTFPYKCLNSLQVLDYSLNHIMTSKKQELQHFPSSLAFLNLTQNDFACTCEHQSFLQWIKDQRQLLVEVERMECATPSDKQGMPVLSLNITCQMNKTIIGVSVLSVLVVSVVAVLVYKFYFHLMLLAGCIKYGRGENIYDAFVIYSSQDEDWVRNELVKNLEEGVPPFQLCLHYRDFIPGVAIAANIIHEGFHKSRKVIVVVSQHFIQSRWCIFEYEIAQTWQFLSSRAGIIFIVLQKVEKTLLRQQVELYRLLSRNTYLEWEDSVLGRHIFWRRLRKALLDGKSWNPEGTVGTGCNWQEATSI

Ac-Ser-Asp-Ala-Ala-Val-Asp-Thr-Ser-Ser-Glu-Ile-Thr-Thr-Lys-Asp-Leu-Lys-Glu-Lys-Lys-Glu-Val-Glu-Glu-Ala-Glu-Asn-O (Ac-SDAAVDTSSEITTKDLKEKKEVEEAEN-OH) [TA1, naturally occurring thymic peptide]
production of IL-10 (murine DCs; [1]): decreases
production of IL-12 p70 (murine DCs; [1]): significantly increased
production of IL-10 (murine DCs; [2]): decreases
production of IL-12 p70 (murine DCs; [2]): significantly increased
production of IL-10 (murine DCs; [3]): decreases
production of IL-12 p70 (murine DCs; [3]): significantly increased
cytokine production (IL-12 p70 and IL-10) (murine DCs; in response to LPS (TLR4)): did not affect
cytokine production (IL-12 p70 and IL-10) (murine DCs; in response to Poly(I:C)): did not affect
production of IL-8 (TLR4/CD14; TA1 alone): did not induce
production of IL-8 (TLR4/CD14; in response to the TLR4 ligand LPS): did not induce
fungal growth (A. fumigatus; MyD88-deficient mice): not impaired
fungal growth (A. fumigatus; TLR2-deficient mice): similarly impaired
fungal growth (A. fumigatus; TLR9-deficient mice): similarly impaired
IL-10 production (MyD88-dependent pathway): dramatically ablated
IL-12 p70 production (MyD88-dependent pathway; TA1 and conidia): dramatically ablated
production of IL-8 (human TLR2; TA1 alone): did not stimulate
production of IL-8 (human TLR2; in response to zymosan): potentiated; also recorded: slightly increased
